Bounds are passed on as bounds.

We go through nine compounds from ChEMBL document CHEMBL4673263, “Evaluation of PNU-159682 antibody drug conjugates (ADCs)” (Bioorg Med Chem Lett, 2020).

The subject of series [1] is MES-SA. Description: Cytotoxicity against human MES-SA cells assessed as reduction in cell viability. Format: functional, cell-based.
Series [2] concerns MES-SA/Dx5. Description: Cytotoxicity against human MES SA/DX5 cells assessed as reduction in cell viability. The class given is functional, cell-based.
Series [3] relates to HEK-293T. Description: Cytotoxicity against HEK293T cells assessed as reduction in cell viability. Format: cell-based. To be noted: Homo sapiens.
Series [4] can be described thus: Stability of the compound in rat plasma incubated for 7 days. Format: ADME, cell-free. The conditions noted are these: 168 h, time 7 day.
Series [5] in a line: Stability of compound in mouse plasma incubated for 7 days. The class given is ADME, cell-free. The conditions noted are these: 168 h, time 7 day.

Broadly, the EC50 is the concentration needed to bring the measured effect to its halfway point. With `COc1cccc2c1C(=O)c1c(O)c3c(c(O)c1C2=O)C[C@@](O)(c1csc(N(C)C)n1)C[C@@H]3O[C@H]1C[C@H]2[C@H](O[C@@H]3[C@@H](OC)OCCN32)[C@H](C)O1`, the EC50 in series [1] was found to be 0.07 nM; in series [2], 0.113 nM; in series [3], 0.065 nM.

On to `COc1cccc2c1C(=O)c1c(O)c3c(c(O)c1C2=O)C[C@@](O)(c1csc(N(C)C(=O)[C@H](C)NC(=O)[C@@H](NC(=O)CN2C(=O)C=CC2=O)C(C)C)n1)C[C@@H]3O[C@H]1C[C@H]2[C@H](OC3[C@@H](OC)OCCN32)[C@H](C)O1` (stereo partly specified), for which the Stabilty entry in series [4] and in series [5] was “Stable” throughout.

Take `COc1cccc2c1C(=O)c1c(O)c3c(c(O)c1C2=O)C[C@@](O)(C(=O)CO)C[C@@H]3O[C@H]1C[C@H]2[C@H](O[C@@H]3[C@@H](OC)OCCN32)[C@H](C)O1`: the EC50 in series [1] came to 0.0002 nM; in series [2], 0.00038 nM; in series [3], 0.00037 nM.

Regarding `COc1cccc2c1C(=O)c1c(O)c3c(c(O)c1C2=O)C[C@@](O)(c1nnc(C)[nH]1)C[C@@H]3O[C@H]1C[C@H]2[C@H](O[C@@H]3[C@@H](OC)OCCN32)[C@H](C)O1`, the EC50 was 0.034 nM in series [1], above 15 nM in series [2] and 0.033 nM in series [3].

For `CNc1nc([C@]2(O)Cc3c(O)c4c(c(O)c3[C@@H](O[C@H]3C[C@H]5[C@H](O[C@@H]6[C@@H](OC)OCCN65)[C@H](C)O3)C2)C(=O)c2c(OC)cccc2C4=O)cs1`, the EC50 worked out at 0.047 nM in series [1], 0.125 nM in series [2] and 0.052 nM in series [3].

Regarding `COc1cccc2c1C(=O)c1c(O)c3c(c(O)c1C2=O)C[C@@](O)(c1cnc(C)[nH]1)C[C@@H]3O[C@H]1C[C@H]2[C@H](O[C@@H]3[C@@H](OC)OCCN32)[C@H](C)O1`, the results for the EC50 in series [1], in series [2] and in series [3] were 0.0017 nM, above 0.3 nM and 0.024 nM, respectively.

As for `COc1cccc2c1C(=O)c1c(O)c3c(c(O)c1C2=O)C[C@@](O)(c1csc(N)n1)C[C@@H]3O[C@H]1C[C@H]2[C@H](O[C@@H]3[C@@H](OC)OCCN32)[C@H](C)O1`, the EC50 in series [1] stood at 0.046 nM; in series [2] it was 0.139 nM; in series [3], 0.051 nM.

Take `COc1cccc2c1C(=O)c1c(O)c3c(c(O)c1C2=O)C[C@@](O)(c1csc(C)n1)C[C@@H]3O[C@H]1C[C@H]2[C@H](O[C@@H]3[C@@H](OC)OCCN32)[C@H](C)O1`: the EC50 is 0.0116 nM in series [1], 0.0101 nM in series [2] and 0.012 nM in series [3].

Consider `COc1cccc2c1C(=O)c1c(O)c3c(c(O)c1C2=O)C[C@@]1(C[C@@H]3O[C@H]2C[C@H]3[C@H](O[C@@H]4[C@@H](OC)OCCN43)[C@H](C)O2)OC(=O)OCC1=O`, for which the figures for the EC50 in series [1], in series [2] and in series [3] were 0.0005 nM, 0.0009 nM and 0.00069 nM, respectively.
